Among the data in patent publication US20100137377A1, “NOVEL COMPOUNDS” (SOREN EBDRUP ET AL, priority 2007, published 2010) are IC50 values, retold here.

Several values for one entry are separate records, joined by “and”; a condition that tells them apart may be missing. Equal values may be shown once.

The target of the assay is T1, h-11βHSD1 (Homo sapiens, UniProt P28845).
T1 construct: made in house
Nature of the assay: 11βHSD1 enzyme assay (SPA, 3H-cortisone to 3H-cortisol). It is filed as biochemical. Particulars: extract of yeast transformed with h-11βHSD1; 120 nM 3H-cortisone, 4 mM β-NADPH, 60 min at 30° C.; several determinations per cell separated by ';'. The procedure: ^3H-cortisone and anti-rabbit Ig coated scintillation proximity assay (SPA) beads were purchased from Amersham Pharmacia Biotech, β-NADPH was from Sigma and rabbit anti-cortisol antibodies were from Fitzgerald. An extract of yeast transformed with h-11βHSD1 (Hutt et al., FEBS Lett., 441, 25 (1998)) was used as the source of enzyme. The test compounds were dissolved in DMSO (10 mM). All dilutions were performed in a buffer containing 50 mM TRIS-HCl (Sigma Chemical Co), 4 mM EDTA (Sigma Chemical Co), 0.1% BSA (Sigma Chemical Co), 0.01% Tween-20 (Sigma Chemical Co) and 0.005% bacitracin (Novo Nordisk A/S), pH=7.4. Optiplate 96 wells plates were supplied by Packard. The amount of ^3H-cortisol bound to the SPA beads was measured on TopCount NXT, Packard.
h-11βHSD1, 120 nM ^3H-cortisone, 4 mM β-NADPH, antibody (1:200), serial dilutions of test compound and SPA particles (2 mg/well) were added to the wells. The reaction was initiated by mixing the different components and was allowed to proceed under shaking for 60 min at 30° C. The reaction was stopped be the addition of 10 fold excess of a stopping buffer containing 500 μM carbenoxolone and 1 μM cortisone. Data was analysed using GraphPad Prism software.

T1 sequence (P28845 whole entry): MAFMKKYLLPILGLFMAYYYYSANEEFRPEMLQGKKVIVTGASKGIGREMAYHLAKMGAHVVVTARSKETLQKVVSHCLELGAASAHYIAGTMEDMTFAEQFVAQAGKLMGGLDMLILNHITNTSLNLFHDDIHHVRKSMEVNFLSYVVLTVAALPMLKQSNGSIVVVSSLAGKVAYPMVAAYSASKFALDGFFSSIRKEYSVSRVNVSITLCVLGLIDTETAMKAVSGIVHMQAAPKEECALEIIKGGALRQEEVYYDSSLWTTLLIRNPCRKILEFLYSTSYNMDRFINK

Turning to `CN(C(=O)c1ccc(Oc2ccc(Cl)cn2)cc1)C1CCC(CO)CC1` (centres unmarked) [Compound 5, 4-(5-Chloro-pyridin-2-yloxy)-N-(4-hydroxymethyl-cyclohexyl)-N-methyl-benzamide], the IC50 was 17 nM and 27 nM.
In the case of `O=C(NC1C2CC3CC1CC(O)(C3)C2)c1ccc(Oc2ccc(Cl)cc2Cl)cc1` (centres unmarked) [Compound 1, 4-(2,4-Dichloro-phenoxy)-N-(5-hydroxy-adamantan-2-yl)-benzamide], the IC50 is 73 nM and 81 nM.
The same measure for `N#Cc1ccc(Oc2ccc(C(=O)NC3C4CC5CC3CC(O)(C5)C4)cc2)nc1` (centres unmarked) [Compound 2, 4-(5-Cyano-pyridin-2-yloxy)-N-(5-hydroxy-adamantan-2-yl)-benzamide]: 259 nM and 305 nM.
The same measure for `O=C(NC1C2CC3CC1CC(CO)(C3)C2)c1ccc(Oc2ccc(Cl)cn2)cc1` (centres unmarked) [Compound 4, 4-(5-Chloro-pyridin-2-yloxy)-N-(5-hydroxymethyl-adamantan-2-yl)-benzamide]: 51 nM (2×) and 56 nM; for `O=C(NC1C2CC3CC1CC(O)(C3)C2)c1ccc(Oc2ccc(Cl)cn2)cc1` (centres unmarked) [Compound 3, 4-(5-Chloro-pyridin-2-yloxy)-N-(5-hydroxy-adamantan-2-yl)-benzamide]: 56 nM and 89 nM.
